Values quoted from earlier work in patent US20260151341A1, “NOVEL AMORPHOUS ACTIVE PHARMACEUTICAL INGREDIENTS” (DISRUPTIVE PHARMA AB, priority 2020, published 2026).

Settings: mesoporous silica, study referred to by Gupte et al.

loading at which stabilized by silica: more than 32 % by weight
Structure (SMILES): CCC(C)n1ncn(-c2ccc(N3CCN(c4ccc(OCC5COC(Cn6cncn6)(c6ccc(Cl)cc6Cl)O5)cc4)CC3)cc2)c1=O (stereo not shown) [Itraconazole, itraconazole]
